Test results published in ChEMBL document CHEMBL1137609, “Low-calcemic, highly antiproliferative, 23-oxa ether analogs of the natural hormone 1 alpha,25-dihydroxyvitamin D3: design, synthesis, and preliminary biological evaluation” (J Med Chem, 2007).
Active and inactive are the calls of the source. The rule behind the calls is not given here.

Experiments:
Mus musculus [1] = experiment: Induction of CYP24 mRNA transcriptional activity in C57BL/6 mouse duodenum at 3 ug/kg, ip after 4 hrs; assay type: functional, organism-based
[2] = Lipophilicity, log D of the compound; assay type: physicochemical; settings: octanol/water
Mus musculus [3] = experiment: Induction of TRPV6 mRNA transcriptional activity in C57BL/6 mouse duodenum at 3 ug/kg, ip after 4 hrs; assay type: functional, organism-based
Mus musculus [4] = experiment: Induction of CYP24 mRNA transcriptional activity in C57BL/6 mouse duodenum at 25 ug/kg, ip after 4 hrs; assay type: functional, organism-based
Mus musculus [5] = experiment: Induction of TRPV6 mRNA transcriptional activity in C57BL/6 mouse duodenum at 25 ug/kg, ip after 4 hrs; assay type: functional, organism-based

Compound | logD [2] | further results
C=C1/C(=C\C=C2/CCC[C@]3(C)[C@@H]([C@H](C)CCCC(C)(C)O)CC[C@@H]23)C[C@@H](O)C[C@@H]1O [CALCITRIOL] | 3.6 | Activity (Mus musculus [1]): Active; Activity (Mus musculus [3]): Active
C=C1/C(=C\C=C2/CCC[C@]3(C)[C@@H]([C@H](C)COCc4ccccc4)CC[C@@H]23)C[C@@H](O)C[C@@H]1O | 4.4 | –
C=C1/C(=C\C=C2/CCC[C@]3(C)[C@@H]([C@H](C)COC/C=C/C(C)(C)C)CC[C@@H]23)C[C@@H](O)C[C@@H]1O | 4.9 | –
C=C1/C(=C\C=C2/CCC[C@]3(C)[C@@H]([C@H](C)COCC(=C)C4(C)CCCCC4)CC[C@@H]23)C[C@@H](O)C[C@@H]1O | 5.3 | –
C=C(COC[C@@H](C)[C@H]1CC[C@H]2/C(=C/C=C3/C[C@@H](O)C[C@H](O)C3=C)CCC[C@]12C)c1ccccc1 | 5.1 | –
C=C1/C(=C\C=C2/CCC[C@]3(C)[C@@H]([C@H](C)COCC#CC(C)(C)C)CC[C@@H]23)C[C@@H](O)C[C@@H]1O | 4.6 | –
C=C1/C(=C\C=C2/CCC[C@]3(C)[C@@H]([C@H](C)COCC(=C)C(C)(C)C)CC[C@@H]23)C[C@@H](O)C[C@@H]1O | 4.7 | Activity (Mus musculus [4]): Active; Activity (Mus musculus [5]): Active
C=C1/C(=C\C=C2/CCC[C@]3(C)[C@@H]([C@H](C)COCc4ccco4)CC[C@@H]23)C[C@@H](O)C[C@@H]1O | 3.3 | –
C=C(COC[C@@H](C)[C@H]1CC[C@H]2/C(=C/C=C3/C[C@@H](O)C[C@H](O)C3=C)CCC[C@]12C)C1=CCCCC1(C)C | 4.9 | Activity (Mus musculus [4]): Active; Activity (Mus musculus [5]): Active
